The values that follow come from article PMC8854719, “Phase 1A/1B dose-escalation and -expansion study to evaluate the safety, pharmacokinetics, food effects and antitumor activity of pamiparib in advanced solid tumours” (British Journal of Cancer, 2021).

The test system of test [1] is poly(ADP-ribose [PAR]) formation in peripheral blood mononuclear cells (PBMCs). The test can be described thus: PAR inhibition in PBMCs (ELISA). It is filed as in vivo. Particulars: Homo sapiens, PBMC; sustained at doses of 10 mg BID or higher. On the procedure: Pamiparib in plasma was measured using a validated liquid chromatography-tandem–mass spectrometry assay with a lower limit of quantification of 1.0 ng/mL. The collection schedule for blood samples used to assess the PK profile is presented in the Supplemental Appendix. Summary PK parameters, including area under the concentration-time curve from time 0 to 9 h (AUC0-9) or infinity (AUC0-inf), maximal plasma concentration (Cmax) and time to maximal plasma concentration (Tmax), were estimated. The pharmacodynamic (PD) activity of pamiparib was explored through the evaluation of poly(ADP-ribose [PAR]) formation in peripheral blood mononuclear cells (PBMCs) after pamiparib administration. The schedule for blood sample collection (PK and PBMCs) and additional assessment information for PAR levels in PBMCs and pharmacodynamic activity is presented in the Supplemental Appendix. Antitumor activity was assessed by radiographic imaging (computed tomography or magnetic resonance imaging) during screening, within 28 days of first pamiparib dose, every 6 weeks in the first 12 months and every 9 weeks thereafter.
Time-matched blood samples (PK and PBMCs) were obtained on Day 1 (predose and 4 hours postdose) and Day 17 (4 hours postdose) of Cycle 1. The PAR levels in PBMCs were measured by a validated ELISA assay using a commercial PARP pharmacodynamic assay kit (Trevigen, Gaithersburg, MD). […]

A further test has as its system ovarian cancer. Particulars: Phase 1 study in China (NCT03333915), high-grade ovarian cancer refractory or resistant to platinum; cited from earlier work.

A word on the inhibition: it is how much of the control response was suppressed. Low readings indicate a response near the control, high ones a response far below the control.

`C[C@]12CCCN1CC1=NNC(=O)c3cc(F)cc4[nH]c2c1c34` [pamiparib] had an inhibition at 10 mg in test [1] of approximately 80%. In the test on ovarian cancer, the Clinical benefit rate was 62.5% and the ORR was 25.0%.
